Patent US11407711B2, “Benzamide compound and use thereof” (METISA BIOTECHNOLOGY CO., LTD., priority 2018, dated 2022)
Like-named read-outs stand apart in the source and are kept apart here.

How the values were obtained:
Assay type in all cases: in vivo
armyworm = assay: Insecticidal activity against armyworm (Airbrush spray on maize blade segments); settings: 72 h, read-out: fatality rate against armyworm
Protocol: (§1) The compound to be tested was dissolved by a mixed solvent of acetone/methanol (1:1), and then diluted by water containing 0.1% (wt) Tween 80 to the required concentration.
(§2) An Airbrush spray method was adopted for the determination of the activity, with armyworm, Plutella xylostella and Chilo suppressalis as targets.
Determination method: maize blades were cut into 2 cm (length) segments; with the pressure of Airbrush spray being 10 psi (about 0.7 kg/cm^2), both sides of each blade segment were sprayed with the amount of 0.5 ml. After dried in the shade, each segment was inoculated with 10 3rd-instar larvaes, 3 repeats for each segment. And then, the treated segments were put into an observation room (25° C., relative humidity: 60-70%) for cultivation; the number of the survivals was surveyed 1 d, 2 d and 3 d after administration, and then the death rate was calculated.

Chilo suppressalis = assay: Insecticidal activity against Chilo suppressalis (spray on rice seedlings, stems fed to larvae); settings: for pest or weed control at 1 µg/mL / pest or weed control at 4 µg/mL / pest or weed control at 40 µg/mL: Chilo suppressalis, 72 h, read-out: fatality rate against Chilo suppressalis
Protocol: as §1, §2
Determination method: 1) preparation of rice seedlings: rice was cultivated in small plastic cups (diameter: 4.5 cm and height: 4 cm) at a constant temperature room (temperature: 26-28° C., relative humidity: 60-80% around and illumination: 16 hL:8 hD), after the rice grew to a 4-5 leaf stage, vigorous and uniform-growth rice seedlings were selected and treated with an insecticide, 3 repeats for each treatment. 2) Preparation of pests for test: 3rd-instar larvaes of Chilo suppressalis fed continuously in the room. 3) Inoculation of pests on rice stems by spray. The whole plants of the rice seedlings were sprayed by a spray method uniformly, with the dose of 15 ml for each treatment. The blank control was treated first, and the above operation was repeated in an order of lower to higher test concentration. After sprayed, rice seedlings were placed in the shade to dry the insecticide liquor, and then stalks about 5 cm above the basal part of the stems were cut to be fed to the pests for test. Glass petri dishes (diameter: […]) were prepared, cushioned by filter paper at the bottom thereof, and subjected to water addition for moisturizing; about 20 pieces of rice stems were put in each dish and inoculated with 10 larvaes; then the petri dishes were closed by non-woven fabrics and placed in a constant temperature room for culture. The number of survivals was surveyed 3 d after administration.

Plutella xylostella = assay: Insecticidal activity against Plutella xylostella (Airbrush spray on cabbage leaf discs)
Protocol: as §1, §2
Determination method: cabbage blades were punched into 2 cm (diameter) leaf discs by a puncher; with the pressure of Airbrush spray being 10 psi (about 0.7 kg/cm^2), both sides of each leaf disc were sprayed with the amount of 0.5 ml. After dried in the shade, each leaf disc was inoculated with 10 3rd-instar larvaes, 3 repeats for each leaf disc. And then, the treated leaf discs were put into an observation room (25° C., relative humidity: 60-70%) for cultivation; the number of the survivals was surveyed 1 d, 2 d and 3 d after administration, and then the death rate was calculated.

[1] = 0.05 mg/L, 3 d after administration, 3rd-instar larvae
[2] = 0.1 mg/L, 3 d after administration, 3rd-instar larvae
[3] = 0.5 mg/L, 3 d after administration, 3rd-instar larvae
[4] = 1 mg/L, survivals surveyed 3 d after administration
[5] = 4 mg/L, survivals surveyed 3 d after administration
[6] = 40 mg/L, survivals surveyed 3 d after administration
[7] = Plutella xylostella, foliar, 72 h, 0.5 mg/L, 3 d after administration, read-out: fatality rate against Plutella xylostella
[8] = Plutella xylostella, foliar, 72 h, 1 mg/L, 3 d after administration, read-out: fatality rate against Plutella xylostella
[9] = Plutella xylostella, foliar, 72 h, Table 71, 10 mg/L, 3 d after administration, read-out: Fatality rate (%, 3 d after administration) 10 mg/L
[10] = Plutella xylostella, foliar, 72 h, Table 73, 0.5 mg/L, 3 d after administration, read-out: Fatality rate (%, 3 d after administration) 0.5 mg/L
[11] = Plutella xylostella, foliar, 72 h, Table 73, 1 mg/L, 3 d after administration, read-out: Fatality rate (%, 3 d after administration) 1 mg/L
[12] = Plutella xylostella, foliar, 72 h, read-out: Fatality rate (%, 3 d after administration) 0.5 mg/L, Table 73, 0.5 mg/L, 3 d after administration
[13] = Plutella xylostella, foliar, 72 h, read-out: Fatality rate (%, 3 d after administration) 1 mg/L, Table 73, 1 mg/L, 3 d after administration
[14] = Plutella xylostella, foliar, 72 h, read-out: Fatality rate (%, 3 d after administration) 10 mg/L, Table 71, 10 mg/L, 3 d after administration
[15] = Plutella xylostella, foliar, 72 h, read-out: fatality rate against Plutella xylostella, 0.5 mg/L, 3 d after administration
[16] = Plutella xylostella, foliar, 72 h, read-out: fatality rate against Plutella xylostella, 1 mg/L, 3 d after administration
[17] = Table 75, fast-acting efficacy, dose 0.5 mg/L
[18] = Table 76, fast-acting efficacy, dose 0.05 mg/L

N#CCN(C(=O)c1ccc(C#N)cc1)c1cccc(C(=O)Nc2c(Br)cc(C(F)(C(F)(F)F)C(F)(F)F)cc2Br)c1F [Compound 2.17]
100%: pest or weed control at 10 µg/mL (Plutella xylostella; [9]) | pest or weed control at 0.5 µg/mL (Plutella xylostella; [10]) | pest or weed control at 1 µg/mL (Plutella xylostella; [11])
≥ 90%: pest or weed control at 0.05 µg/mL (armyworm; [1]) | pest or weed control at 0.1 µg/mL (armyworm; [2]) | pest or weed control at 0.5 µg/mL (armyworm; [3]) | pest or weed control at 1 µg/mL (Chilo suppressalis; [4]) | pest or weed control at 4 µg/mL (Chilo suppressalis; [5]) | pest or weed control at 40 µg/mL (Chilo suppressalis; [6]) | pest or weed control at 0.5 µg/mL (Plutella xylostella; [7]) | pest or weed control at 1 µg/mL (Plutella xylostella; [8])

N#CCN(C(=O)c1ccc(C(F)(F)F)cc1)c1cccc(C(=O)Nc2c(Br)cc(C(F)(C(F)(F)F)C(F)(F)F)cc2Br)c1F [Compound 2.43]
100%: pest or weed control at 10 µg/mL (Plutella xylostella; [9]) | pest or weed control at 0.5 µg/mL (Plutella xylostella; [10]) | pest or weed control at 1 µg/mL (Plutella xylostella; [11])
≥ 90%: pest or weed control at 0.05 µg/mL (armyworm; [1]) | pest or weed control at 0.1 µg/mL (armyworm; [2]) | pest or weed control at 0.5 µg/mL (armyworm; [3]) | pest or weed control at 1 µg/mL (Chilo suppressalis; [4]) | pest or weed control at 4 µg/mL (Chilo suppressalis; [5]) | pest or weed control at 40 µg/mL (Chilo suppressalis; [6]) | pest or weed control at 0.5 µg/mL (Plutella xylostella; [7]) | pest or weed control at 1 µg/mL (Plutella xylostella; [8])

N#CCN(C(=O)c1ccccc1)c1cccc(C(=O)Nc2c(Br)cc(C(F)(C(F)(F)F)C(F)(F)F)cc2Br)c1F [Compound 2.321]
≥ 90%: pest or weed control at 0.05 µg/mL (armyworm) | pest or weed control at 0.1 µg/mL (armyworm) | pest or weed control at 0.5 µg/mL (armyworm) | pest or weed control at 1 µg/mL (Chilo suppressalis) | pest or weed control at 4 µg/mL (Chilo suppressalis) | pest or weed control at 40 µg/mL (Chilo suppressalis) | pest or weed control at 0.5 µg/mL (Plutella xylostella; [15]) | pest or weed control at 1 µg/mL (Plutella xylostella; [16])
80%: Fatality rate (%) 1 d after administration (Plutella xylostella; [17])
95.5%: Fatality rate (%, 3 d after administration) 1.25 mg/L (Chilo suppressalis; Table 77, 1.25 mg/L, 3 d after administration)
100%: Fatality rate (%, 3 d after administration) 2.5 mg/L (Chilo suppressalis; Table 77, 2.5 mg/L, 3 d after administration) | Fatality rate (%, 3 d after administration) 5 mg/L (Chilo suppressalis; Table 77, 5 mg/L, 3 d after administration) | pest or weed control at 0.5 µg/mL (Plutella xylostella; [12]) | pest or weed control at 1 µg/mL (Plutella xylostella; [13]) | pest or weed control at 10 µg/mL (Plutella xylostella; [14]) | Fatality rate (%) 3 d after administration (Plutella xylostella; Table 75, fast-acting efficacy, dose 0.5 mg/L, 3 d after administration)
95%: Fatality rate (%) 2 d after administration (Plutella xylostella; [17])

N#CCN(C(=O)c1ccccc1)c1cccc(C(=O)Nc2c(Cl)cc(C(F)(C(F)(F)F)C(F)(F)F)cc2Cl)c1F [Compound 3.321]
≥ 90%: pest or weed control at 0.1 µg/mL (armyworm) | pest or weed control at 0.5 µg/mL (armyworm) | pest or weed control at 4 µg/mL (Chilo suppressalis) | pest or weed control at 40 µg/mL (Chilo suppressalis) | pest or weed control at 1 µg/mL (Plutella xylostella; [16])
100%: pest or weed control at 10 µg/mL (Plutella xylostella; [14])

Cc1cc(C(F)(C(F)(F)F)C(F)(F)F)cc(Br)c1NC(=O)c1cccc(N(CC#N)C(=O)c2ccccc2)c1F [Compound 6.321]
≥ 90%: pest or weed control at 0.5 µg/mL (armyworm) | pest or weed control at 40 µg/mL (Chilo suppressalis) | pest or weed control at 1 µg/mL (Plutella xylostella; [16])
98.5%: pest or weed control at 1 µg/mL (Plutella xylostella; Plutella xylostella, foliar, 72 h, read-out: Fatality rate (%, 3 d after administration) 1 mg/L, Table 72, 1 mg/L, 3 d after administration)
100%: pest or weed control at 10 µg/mL (Plutella xylostella; [14]) | Fatality rate (%, 3 d after administration) 5 mg/L (Plutella xylostella; Table 72, 5 mg/L, 3 d after administration)

N#CCN(C(=O)c1ccccc1)c1cccc(C(=O)Nc2c(Cl)cc(C(F)(C(F)(F)F)C(F)(F)F)cc2Br)c1F [Compound 7.321]
≥ 90%: pest or weed control at 0.1 µg/mL (armyworm) | pest or weed control at 0.5 µg/mL (armyworm) | pest or weed control at 4 µg/mL (Chilo suppressalis) | pest or weed control at 40 µg/mL (Chilo suppressalis) | pest or weed control at 1 µg/mL (Plutella xylostella; [16])
100%: pest or weed control at 10 µg/mL (Plutella xylostella; [14])

N#CCN(C(=O)c1ccccc1)c1cccc(C(=O)Nc2c(Br)cc(C(F)(C(F)(F)F)C(F)(F)F)cc2I)c1F [Compound 8.321]
100%: pest or weed control at 10 µg/mL (Plutella xylostella; [14])
≥ 90%: pest or weed control at 0.1 µg/mL (armyworm) | pest or weed control at 0.5 µg/mL (armyworm) | pest or weed control at 4 µg/mL (Chilo suppressalis) | pest or weed control at 40 µg/mL (Chilo suppressalis) | pest or weed control at 1 µg/mL (Plutella xylostella; [16])

N#CCN(C(=O)c1ccccc1)c1cccc(C(=O)Nc2c(Br)cc(C(F)(C(F)(F)F)C(F)(F)F)cc2C(F)(F)F)c1F [Compound 9.321]
≥ 90%: pest or weed control at 0.05 µg/mL (armyworm) | pest or weed control at 0.1 µg/mL (armyworm) | pest or weed control at 0.5 µg/mL (armyworm) | pest or weed control at 1 µg/mL (Chilo suppressalis) | pest or weed control at 4 µg/mL (Chilo suppressalis) | pest or weed control at 40 µg/mL (Chilo suppressalis) | pest or weed control at 0.05 µg/mL (Plutella xylostella; Plutella xylostella, foliar, 72 h, read-out: fatality rate against Plutella xylostella, 0.05 mg/L, 3 d after administration) | pest or weed control at 0.5 µg/mL (Plutella xylostella; [15]) | pest or weed control at 1 µg/mL (Plutella xylostella; [16])
100%: Fatality rate (%, 3 d after administration) 1.25 mg/L (Chilo suppressalis; Table 78, 1.25 mg/L, 3 d after administration) | Fatality rate (%, 3 d after administration) 2.5 mg/L (Chilo suppressalis; Table 78, 2.5 mg/L, 3 d after administration) | pest or weed control at 0.5 µg/mL (Plutella xylostella; Plutella xylostella, foliar, 72 h, read-out: Fatality rate (%, 3 d after administration) 0.5 mg/L, Table 74, 0.5 mg/L, 3 d after administration) | pest or weed control at 10 µg/mL (Plutella xylostella; [14]) | Fatality rate (%, 3 d after administration) 0.05 mg/L (Plutella xylostella; Table 74, 0.05 mg/L, 3 d after administration) | Fatality rate (%) 3 d after administration (Plutella xylostella; Table 76, fast-acting efficacy, dose 0.05 mg/L, 3 d after administration)
98%: Fatality rate (%, 3 d after administration) 0.625 mg/L (Chilo suppressalis; Table 78, 0.625 mg/L, 3 d after administration)
95%: Fatality rate (%) 2 d after administration (Plutella xylostella; [18])
70%: Fatality rate (%) 1 d after administration (Plutella xylostella; [18])

N#CCN(C(=O)c1cccc(NC(=O)c2ccccc2)c1F)c1c(Br)cc(C(F)(C(F)(F)F)C(F)(F)F)cc1Br [Compound 16.321]
100%: pest or weed control at 0.5 µg/mL (Plutella xylostella; [12]) | pest or weed control at 1 µg/mL (Plutella xylostella; [13]) | pest or weed control at 10 µg/mL (Plutella xylostella; [14])
≥ 90%: pest or weed control at 0.1 µg/mL (armyworm) | pest or weed control at 0.5 µg/mL (armyworm) | pest or weed control at 4 µg/mL (Chilo suppressalis) | pest or weed control at 40 µg/mL (Chilo suppressalis) | pest or weed control at 0.5 µg/mL (Plutella xylostella; [15]) | pest or weed control at 1 µg/mL (Plutella xylostella; [16])
